Reference: BindingDB's records for patent US9771375 (Janssen Pharmaceutica NV, 2017)

Target: T1, Ketohexokinase (Human, UniProt P50053)
T1 sequence (P50053 whole entry): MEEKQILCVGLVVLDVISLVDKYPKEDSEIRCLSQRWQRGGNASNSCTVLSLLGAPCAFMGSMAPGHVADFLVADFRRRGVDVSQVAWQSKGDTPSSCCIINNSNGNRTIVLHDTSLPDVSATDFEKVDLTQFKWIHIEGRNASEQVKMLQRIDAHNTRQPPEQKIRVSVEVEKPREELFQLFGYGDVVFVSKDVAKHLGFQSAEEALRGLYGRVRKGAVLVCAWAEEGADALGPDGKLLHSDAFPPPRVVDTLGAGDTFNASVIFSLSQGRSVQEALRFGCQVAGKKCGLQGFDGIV
Assay: Enzyme Assay
Description: An enzymatic assay was developed to measure KHK-mediated conversion of D-fructose to Fructose-1-P (F-1-P) using High Throughput Mass Spectroscopy (HTMS) as a means of product detection. […] The assay was carried out in 384-well plate format.

SMILES	IC50
COc1nn(-c2ccccc2)c2cc(N3CN(C4CCNCC4)C3)ccc12 [US9771375, Example 73]	0.39 µM
CCc1nn(-c2ccccc2)c2nc(-c3ccc(N4CCNCC4)cc3)nc(O)c12 [US9771375, Example 97]	2.71 µM
